According to patent US20210300943A1, “OGA INHIBITOR COMPOUNDS” (Janssen Pharmaceutica NV, priority 2018, published 2021):

Assays:
[1] = biological target: T1, recombinant human Meningioma Expressed Antigen 5 (MGEA5), also referred to as O-GlcNAcase (OGA) (Homo sapiens, UniProt O60502); assay: OGA biochemical assay (inhibition of FM-GlcNAc hydrolysis, fluorescence); conditions: for Emax / Enzymatic Emax (%): maximal effect; for Emax: read-out: Enzymatic Emax (%); for IC50: read-out: Enzymatic hOGA, pIC50 (converted)
T1 construct: Full length OGA enzyme was purchased at OnGene (cat #TP322411); purchased OnGene (so in the source)
T1 sequence (O60502 1-916): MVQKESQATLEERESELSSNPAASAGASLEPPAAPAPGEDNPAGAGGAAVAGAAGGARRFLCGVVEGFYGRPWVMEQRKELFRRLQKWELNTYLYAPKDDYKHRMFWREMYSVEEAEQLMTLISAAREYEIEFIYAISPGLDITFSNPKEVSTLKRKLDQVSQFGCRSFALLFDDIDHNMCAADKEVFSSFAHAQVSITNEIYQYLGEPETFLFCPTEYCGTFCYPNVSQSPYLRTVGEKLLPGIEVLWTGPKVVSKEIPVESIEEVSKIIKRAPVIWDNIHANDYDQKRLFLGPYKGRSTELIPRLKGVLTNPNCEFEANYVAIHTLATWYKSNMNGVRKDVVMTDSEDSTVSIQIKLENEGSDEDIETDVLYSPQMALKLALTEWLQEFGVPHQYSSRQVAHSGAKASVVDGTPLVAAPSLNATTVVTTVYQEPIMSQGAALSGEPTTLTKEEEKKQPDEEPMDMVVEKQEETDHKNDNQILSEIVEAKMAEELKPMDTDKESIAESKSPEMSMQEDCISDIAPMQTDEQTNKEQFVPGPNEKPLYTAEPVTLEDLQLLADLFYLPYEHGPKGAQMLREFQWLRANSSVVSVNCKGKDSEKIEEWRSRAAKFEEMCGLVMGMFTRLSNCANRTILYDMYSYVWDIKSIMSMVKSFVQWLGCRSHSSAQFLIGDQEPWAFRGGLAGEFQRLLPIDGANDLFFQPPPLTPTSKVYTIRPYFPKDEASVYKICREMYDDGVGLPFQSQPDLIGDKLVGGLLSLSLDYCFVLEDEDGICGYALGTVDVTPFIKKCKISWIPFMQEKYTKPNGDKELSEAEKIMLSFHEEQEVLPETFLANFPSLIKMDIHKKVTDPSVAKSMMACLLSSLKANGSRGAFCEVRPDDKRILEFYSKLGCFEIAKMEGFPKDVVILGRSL
From the text: The assay is based on the inhibition of the hydrolysis of fluorescein mono-β-D-N-Acetyl-Glucosamine (FM-GlcNAc) (Mariappa et al. 2015, Biochem J 470:255) by the recombinant human Meningioma Expressed Antigen 5 (MGEA5), also referred to as O-GlcNAcase (OGA). The hydrolysis FM-GlcNAc (Marker Gene technologies, cat #M1485) results in the formation of β-D-N-glucosamineacetate and fluorescein. The fluorescence of the latter can be measured at excitation wavelength 485 nm and emission wavelength 538 nm. An increase in enzyme activity results in an increase in fluorescence signal. Full length OGA enzyme was purchased at OnGene (cat #TP322411). The enzyme was stored in 25 mM Tris.HCl, pH 7.3, 100 mM glycine, 10% glycerol at −20° C. Thiamet G and GlcNAcStatin were tested as reference compounds (Yuzwa et al. 2008 Nature Chemical Biology 4:483; Yuzwa et al. 2012 Nature Chemical Biology 8:393). The assay was performed in 200 mM Citrate/phosphate buffer supplemented with 0.005% Tween-20. 35.6 g Na2HPO42H2O (Sigma, #C0759) were dissolved in 1 L water to obtain a 200 mM solution. 19.2 g citric acid (Merck, #1.06580) was dissolved in 1 L water to obtain a 100 mM solution. pH of the sodiumphosphate solution was adjusted with the citric acid solution to 7.2. The buffer to stop the reaction consists of a 500 mM Carbonate buffer, pH 11.0. 734 mg FM-GlcNAc were dissolved in 5.48 mL DMSO to obtain a 250 mM solution and was stored at −20° C. OGA was used at a 2 nM concentration and FM-GlcNAc at a 100 uM final concentration. Dilutions were prepared in assay buffer.
50 nl of a compound dissolved in DMSO was dispensed on Black Proxiplate TM 384 Plus Assay plates (Perkin Elmer, #6008269) and 3 μl fl-OGA enzyme mix added subsequently. Plates were pre-incubated for 60 min at room temperature and then 2 μl FM-GlcNAc substrate mix added. […] Plates were briefly centrifuged for 1 min at 1000 rpm and incubate at room temperature for 6 h. To stop the reaction 5 μl STOP buffer were added and plates centrifuge again 1 min at 1000 rpm. Fluorescence was quantified in the Thermo Scientific Fluoroskan Ascent or the PerkinElmer EnVision with excitation wavelength 485 nm and emission wavelength 538 nm.
For analysis a best-fit curve is fitted by a minimum sum of squares method. From this an IC50 value and Hill coefficient was obtained. High control (no inhibitor) and low control (saturating concentrations of standard inhibitor) were used to define the minimum and maximum values.

[2] = biological target: T2, OGA (Homo sapiens, UniProt O60502); assay: OGA cellular assay (ICC detection of O-GlcNAcylated proteins in HEK293 cells inducible for P301L mutant human Tau); type: cell-based; conditions: for Emax: HEK293, HEK293 cells inducible for P301L mutant human Tau; for EC50: 6 hours incubation, read-out: Cellular hOGA, pEC50 (converted)
T2 construct: endogenous in cells; host or cells: HEK293 cells inducible for P301L mutant human Tau (2N4R)
T2 sequence (O60502 1-916): T1 sequence (O60502 1-916)
Method: HEK293 cells inducible for P301L mutant human Tau (isoform 2N4R) were established at Janssen. Thiamet-G was used for both plate validation (high control) and as reference compound (reference EC50 assay validation). OGA inhibition is evaluated through the immunocytochemical (ICC) detection of O-GlcNAcylated proteins by the use of a monoclonal antibody (CTD110.6; Cell Signaling, #9875) detecting 0-GlcNAcylated residues as previously described (Dorfmueller et al. 2010 Chemistry & biology, 17:1250). Inhibition of OGA will result in an increase of O-GlcNAcylated protein levels resulting in an increased signal in the experiment. Cell nuclei are stained with Hoechst to give a cell culture quality control and a rough estimate of immediate compounds toxicity, if any. ICC pictures are imaged with a Perkin Elmer Opera Phenix plate microscope and quantified with the provided software Perkin Elmer Harmony 4.1.
Cells were propagated in DMEM high Glucose (Sigma, #D5796) following standard procedures. 2 days before the cell assay cells are split, counted and seeded in Poly-D-Lysine (PDL) coated 96-wells (Greiner, #655946) plate at a cell density of 12,000 cells per cm^2 (4,000 cells per well) in 100 μl of Assay Medium (Low Glucose medium is used to reduce basal levels of GlcNAcylation) (Park et al. 2014 The Journal of biological chemistry 289:13519). At the day of compound test medium from assay plates was removed and replenished with 90 μl of fresh Assay Medium. 10 μl of compounds at a 10 fold final concentration were added to the wells. Plates were centrifuged shortly before incubation in the cell incubator for 6 hours. DMSO concentration was set to 0.2%. Medium is discarded by applying vacuum. For staining of cells medium was removed and cells washed once with 100 μl D-PBS (Sigma, #D8537). From next step onwards unless other stated assay volume was always 50 μl and incubation was performed without agitation and at room temperature. Cells were fixed in 50 μl of a 4% paraformaldehyde (PFA, Alpha aesar, #043368) PBS solution for 15 minutes at room temperature. […] Before analysis samples were washed 2 times manually for 5 minutes in ICC base buffer.
Imaging is performed using Perkin Elmer Phenix Opera using a water 20× objective and recording 9 fields per well. Intensity readout at 488 nm is used as a measure of O-GlcNAcylation level of total proteins in wells. To assess potential toxicity of compounds nuclei were counted using the Hoechst staining. IC50-values are calculated using parametric non-linear regression model fitting. As a maximum inhibition Thiamet G at a 200 uM concentration is present on each plate. In addition, a concentration response of Thiamet G is calculated on each plate.

[3] = maximal effect, Thiamet G 200 uM as maximum
[4] = HEK293 cells inducible for P301L mutant human Tau

Row | Compound | Emax [1] | IC50 [1] | Emax [2, 3] | EC50 [2, 4] | Enzymatic Emax (%) [1] | Cellular Emax (%) ([2]; HEK293 cells inducible for P301L mutant human Tau, maximal effect, Thiamet G 200 uM as maximum)
1 | Cc1cc(OC[C@@H]2CCCN([C@@H](C)c3ccc4c(n3)OCCO4)C2)cc(C)n1 (relative stereo) [Product 108] | 37% | > 10 µM | -8% | > 1 µM | – | –
2 | Cc1cc(OC[C@@H]2CCCN([C@H](C)c3ccc4c(n3)OCCO4)C2)cc(C)n1 (relative stereo) [Product 109] | 95% | 0.251 µM | 37% | > 1 µM | – | –
3 | COc1cc(NC[C@H]2CCCN(C(C)c3ccc4c(n3)OCCO4)C2)cc(C)n1 (single isomer, unassigned) [Product 26] | – | 0.00251 µM | 85% | 0.00501 µM | 101% | –
4 | Cc1cc(NCC2CCCN(C(C)c3ccc4c(n3)OCCO4)C2)cc(C(F)(F)F)n1 (single isomer, unassigned) [Product 33] | 102% | 0.00251 µM | 83% | 0.0316 µM | – | –
5 | Cc1cc(C[C@H]2CCCN(C(C)c3cc4c(cc3F)OCCO4)C2)cc(C)n1 (single isomer, unassigned) [Product 42] | 99% | 0.002 µM | 86% | 0.00631 µM | – | –
6 | Cc1cc(C[C@H]2CCCN(C(C)c3cnc4c(c3)OCCN4)C2)cc(C)n1 (single isomer, unassigned) [Product 52] | – | 0.00126 µM | 92% | 0.00631 µM | 104% | –
7 | Cc1cc(C[C@H]2CCCN(C(C)c3cnc4c(c3)OCCO4)C2)cc(C)n1 (single isomer, unassigned) [Product 132] | 103% | 0.00501 µM | 77% | 0.0794 µM | – | –
8 | Cc1cc(OC[C@H]2CCCN(C(C)c3ccc4c(n3)OCCO4)C2)cc(C)n1 (single isomer, unassigned) [Product 139] | 98% | 0.00794 µM | 88% | 0.02 µM | – | –
9 | Cc1cc(OC[C@H]2CCCN(C(C)c3nc4c(cc3F)OCCO4)C2)cc(C)n1 (single isomer, unassigned) [Product 156] | – | 0.251 µM | – | 0.316 µM | 97% | 55%

More lines, now with the values ahead:

Row | Emax [1] | IC50 [1] | Emax [2, 3] | EC50 [2, 4] | Enzymatic Emax (%) [1] | Cellular Emax (%) ([2]; HEK293 cells inducible for P301L mutant human Tau, maximal effect, Thiamet G 200 uM as maximum) | Compound
10 | 101% | 0.00316 µM | 90% | 0.0158 µM | – | – | Cc1cc(C[C@H]2CCCN([C@@H](C)c3ccc4c(n3)OCCO4)C2)cc(C)n1 (single isomer, unassigned) [Product 46]
11 | 72% | 3.98 µM | 2% | > 1 µM | – | – | Cc1cc(OC[C@H]2CCCN([C@@H](C)c3ccc4c(n3)OCCO4)C2)cc(C)n1 (single isomer, unassigned) [Product 140]
12 | 100% | 0.01 µM | 93% | 0.0316 µM | – | – | Cc1cc([C@H]2CCCN(C(C)c3ccc4c(n3)OCCO4)C2)cc(C)n1 (single isomer, unassigned) [Product 149]
13 | 92% | 2 µM | 3% | > 1 µM | – | – | Cc1cc([C@@H]2CCCN(C(C)c3ccc4c(n3)OCCO4)C2)cc(C)n1 (single isomer, unassigned) [Product 150]
14 | 102% | 0.00794 µM | 89% | 0.0398 µM | – | – | Cc1cc([C@H]2CCCN([C@H](C)c3ccc4c(n3)OCCO4)C2)cc(C)n1 (single isomer, unassigned) [Product 158]
15 | 91% | 1.26 µM | 0% | > 1 µM | – | – | Cc1cc([C@H]2CCCN([C@@H](C)c3ccc4c(n3)OCCO4)C2)cc(C)n1 (single isomer, unassigned) [Product 159]
16 | 89% | 2 µM | 5% | > 1 µM | – | – | Cc1cc([C@@H]2CCCN([C@H](C)c3ccc4c(n3)OCCO4)C2)cc(C)n1 (single isomer, unassigned) [Product 160]
17 | 79% | 3.16 µM | -4% | > 1 µM | – | – | Cc1cc([C@@H]2CCCN([C@@H](C)c3ccc4c(n3)OCCO4)C2)cc(C)n1 (single isomer, unassigned) [Product 161]
